The text below walks through data of US7777038B2, “Carbostyril compound” (Otsuka Pharmaceutical Co., Ltd., priority 2004, dated 2010).

Each structure is given as a SMILES string.

One data set has as its system human Trefoil Factor 2 (hTFF2) gene. As to the kind of experiment: hTFF2 gene reporter assay (luciferase) using pGL3-hTFF2pro•pWL-neo/MKN-45 #6-2 cell line. As to conditions: test compound concentration 10^−6 M; 24 hours culture; luciferase activity as control % of dimethylsulfoxide-added wells (100%). It counts as cell-based. The method, then:
Transcription promoting activity on human Trefoil Factor 2 (hTFF2) gene of test compounds was evaluated by means of an hTFF2 gene reporter assay.
(1) Preparation of hTFF2 Gene Reporter Vector pGL3-hTFF2pro
DNA was extracted from HeLa cells (CCL-2, DAINIPPON PHARMACEUTICAL CO., LTD.) using a deoxyribonucleic acid (DNA) extraction kit (DNeasy™ Tissue Kit, manufactured by QIAGEN). The hTFF2 promoter region was amplified using the extracted DNA as a template by means of the polymerase chain reaction (PCR). The oligomers 5′-[…]-3′ and 5′-[…]-3′ were selected as PCR primers to be amplified, based on the report by Beck et al. (Beck S., Sommer P., Blin N., Gott P., 5′-flanking motifs control cell-specific expression of trefoil factor genes (TFF), Int. J. Mol. Med. 2(3), 353-361 (1998)). Platinum® Pfx DNA polymerase was used as DNA polymerase. The PCR was performed under the conditions of denaturing for 30 seconds at 95° C., annealing for 30 seconds at 55° C. and extending for 75 seconds at 68° C., and the procedures were repeated for 32 cycles.
The PCR products were separated and purified by 1% agarose gel electrophoresis, and cloned to a pCR-BluntII-TOPO vector attached to a cloning kit (Zero Blunt® TOPO® PCR Cloning Kit, manufactured by Invitrogen Corporation). The produced plasmid pCR-Blunt-TFF2pro was introduced into E. coli for transformation (TOP 10 Ultracomp™ Cells, manufactured by Invitrogen Corporation), and transformant strain pCR-Blunt-TFF2pro/TOP10 was selectively cultured in LB agar medium containing 30 μg/ml of Zeocin (Zeocin, manufactured by Invitrogen Corporation). The pCR-Blunt-TFF2pro/TOP10 was subjected to shaking culture in 50 ml of LB medium containing 30 μg/ml of Zeocin at 37° C. over night, and a plasmid was prepared using a plasmid preparation kit (Concert™ High Purity Midiprep System, manufactured by GIBCO BRL).
The nucleotide sequence of the PCR product cloned to the plasmid pCR-Blunt-TFF2pro was determined. The determined nucleotide sequence was compared with the counterpart of hTFF2 promoter region reported in a gene bank (GenBank accession AB038162). The nucleotide sequence of the MluI-HindIII region cloned in pCR-Blunt-TFF2pro was identical to GenBank accession AB038162 (FIG. 1).
The underlined portions indicate the recognition sequence (ACGCGT) of the restriction enzyme MluI and the recognition sequence (AAGCTT) of the restriction enzyme HindIII. The nucleotide sequences of the MluI-HindIII region are identical between the hTFF2 promoter region reported in GenBank and the PCR product cloned to the plasmid pCR-Blunt-TFF2pro. […]
A general note: In a reporter assay the amount or activity of a reporter protein is the signal.
`COc1ccc(CC2SC(=O)NC2=O)c2c1N(Cc1ccc(NC(=O)c3ccc4ccccc4c3)cc1)C(=O)CC2` (stereo not shown) [Example 22, 5-{8-methoxy-1-[4-(2-naphthoylamino)benzyl]-2-oxo-1,2,3,4-tetrahydroquinolin-5-ylmethyl}thiazolidine-2,4-dione]: the “TFF2 Production Promoting Activity” value is listed as “++ (a TFF2 production promoting activity of 1000% or higher at a test compound concentration of 10^−6 M)”.

Test system in another data set: not given
Assay: not given
Conditions: not given
By melting point is commonly meant the temperature of the solid-liquid transition. `Cl.O=C1NC(=S)SC1Cc1cccc2c1CCC(=O)N2Cc1ccc(Cl)nc1` (stereo not shown): the melting point was in the range of 70 to 80 °C.

In the case of `COc1ccc(CCC2SC(=O)NC2=O)c2ccc(=O)n(C)c12` (stereo not shown) [Example 2, 5-[2-(8-methoxy-1-methyl-2-oxo-1,2-dihydroquinolin-5-yl)ethyl]thiazolidine-2,4-dione], the melting point is 222 to 224 °C.

In turn, `COc1ccc(CCCC2SC(=O)NC2=O)c2ccc(=O)n(C)c12` (stereo not shown) [Example 3, 5-[3-(8-methoxy-1-methyl-2-oxo-1,2-dihydroquinolin-5-yl)propyl]thiazolidine-2,4-dione] had a melting point of 172 to 175 °C.

For `COc1ccc(C2SC(=O)NC2=O)c2ccc(=O)n(C)c12` (stereo not shown) [Example 4, 5-(8-methoxy-1-methyl-2-oxo-1,2-dihydroquinolin-5-yl)thiazolidine-2,4-dione], the melting point was 255 °C (dec.).

`COc1ccc(C=C2SC(=O)NC2=O)c2ccc(=O)n(C)c12` [Example 9, 5-[1-(8-Methoxy-1-methyl-2-oxo-1,2-dihydroquinolin-5-yl)methylidene]thiazolidine-2,4-dione] returned a melting point of at least 300 °C.

With `COc1ccc(C=C2SC(=O)N(C)C2=O)c2ccc(=O)n(C)c12` [Example 10, 5-[1-(8-Methoxy-1-methyl-2-oxo-1,2-dihydroquinolin-5-yl)methylidene]-3-methylthiazolidine-2,4-dione], the melting point is 270 °C (dec.).

In turn, `O=C1NC(=O)C(Cc2cc(=O)n(Cc3ccc(Cl)cc3)c3ccccc23)S1` (stereo not shown) [Example 14, 5-[1-(4-chlorobenzyl)-2-oxo-1,2-dihydroquinolin-4-ylmethyl]thiazolidine-2,4-dione] yielded a melting point of 142.1 to 143.7 °C.

As to `O=C1NC(=O)C(Cc2cc3ccccc3n(Cc3ccc(-c4ccccc4)cc3)c2=O)S1` (stereo not shown) [Example 17, 5-[1-(Biphenyl-4-ylmethyl)-2-oxo-1,2-dihydroquinolin-3-ylmethyl]thiazolidine-2,4-dione], the melting point fell in the range of 220.4 to 221.8 °C.

The compound `O=C1NC(=O)C(Cc2ccc3c(c2)N(Cc2ccc(-c4ccccc4)cc2)C(=O)CC3)S1` (stereo not shown) [Example 18, 5-[1-(Biphenyl-4-ylmethyl)-2-oxo-1,2,3,4-tetrahydroquinolin-7-ylmethyl]thiazolidine-2,4-dione] had a melting point of 213.2 to 213.7 °C.

Regarding `COc1ccc(CC2SC(=O)NC2=O)c2c1N(Cc1ccc([N+](=O)[O-])cc1)C(=O)CC2` (stereo not shown) [Example 20, 5-[8-methoxy-1-(4-nitrobenzyl)-2-oxo-1,2,3,4-tetrahydroquinolin-5-ylmethyl]thiazolidine-2,4-dione], the melting point fell in the range of 246.5 to 246.6 °C.

Compound `COc1ccc(CC2SC(=O)NC2=O)c2c1N(Cc1ccc(N)cc1)C(=O)CC2` (stereo not shown) [Example 21, 5-[1-(4-aminobenzyl)-8-methoxy-2-oxo-1,2,3,4-tetrahydroquinolin-5-ylmethyl]thiazolidine-2,4-dione] came in with a melting point of 174.1 to 174.8 °C.

In the case of `CCCCCOC(=O)Nc1ccc(CN2C(=O)CCc3c(CC4SC(=O)NC4=O)ccc(OC)c32)cc1` (stereo not shown) [Example 23, 5-[1-(4-pentyloxycarbonylaminobenzyl)-8-methoxy-2-oxo-1,2,3,4-tetrahydroquinolin-5-ylmethyl]thiazolidine-2,4-dione], the melting point is 98 to 102 °C.

Compound `COc1ccc(CC2SC(=O)NC2=O)c2c1N(Cc1ccc(C(=O)Nc3ccc(C(C)C)cc3)cc1)C(=O)CC2` (stereo not shown) [Example 27, 5-{1-[4-(4-isopropylphenylaminocarbonyl)benzyl]-8-methoxy-2-oxo-1,2,3,4-tetrahydroquinolin-5-ylmethyl}thiazolidine-2,4-dione] showed a melting point of 243 to 244 °C.

With `O=C1NC(=O)C(Cc2ccc(O)c3c2CCC(=O)N3Cc2ccccc2)S1` (stereo not shown) [Example 31, 5-(1-benzyl-8-hydroxy-2-oxo-1,2,3,4-tetrahydroquinolin-5-ylmethyl)thiazolidine-2,4-dione], the melting point lay in the range of 213.2 to 213.7 °C.

As for `COc1ccc(CC2SC(=O)NC2=O)c2c1N(CC(=O)O)C(=O)CC2` (stereo not shown) [Example 34, 5-(1-carboxymethyl-8-methoxy-2-oxo-1,2,3,4-tetrahydroquinolin-5-ylmethyl)thiazolidine-2,4-dione], the melting point fell in the range of 251 to 255 °C.

`COC(=O)CN1C(=O)SC(Cc2ccc(OC)c3c2ccc(=O)n3C)C1=O` (stereo not shown) [Example 43, 3-methoxycarbonylmethyl-5-(8-methoxy-1-methyl-2-oxo-1,2-dihydroquinolin-5-ylmethyl)thiazolidine-2,4-dione] had a melting point of 182 to 184 °C.

As to `O=C1NC(=S)SC1Cc1cccc2c1CCC(=O)N2Cc1ccc(-c2ccccc2)cc1` (stereo not shown) [Example 46, 1-(biphenyl-4-ylmethyl)-5-(4-oxo-2-thioxothiazolidin-5-ylmethyl)-3,4-dihydro-1H-quinolin-2-one], the melting point lay in the range of 186.3 to 187.1 °C.

For `O=C1NC(=S)SC1Cc1cccc2c1CCC(=O)N2Cc1ccc(Br)cc1` (stereo not shown) [Example 47, 1-(4-bromobenzyl)-5-(4-oxo-2-thioxothiazolidin-5-ylmethyl)-3,4-dihydro-1H-quinolin-2-one], the melting point lay in the range of 191.3 to 192.1 °C.

The compound `O=C1NC(=O)C(Cc2cc(=O)[nH]c3ccccc23)S1` (stereo not shown) [Example 111] registered a melting point of 290 to 291 °C.

For `Cn1c(=O)cc(CC2SC(=O)NC2=O)c2ccccc21` (stereo not shown) [Example 112], the melting point was 246 to 248 °C.

Compound `CN1C(=O)SC(Cc2cc(=O)n(C)c3ccccc23)C1=O` (stereo not shown) [Example 113] came in with a melting point of 143 to 145 °C.

`COc1ccc(CC2SC(=O)NC2=O)c2c1N(C)C(=O)CC2` (stereo not shown) [Example 145] registered a melting point of 204 to 208 °C.

As to `COc1ccc(CC2SC(=O)NC2=O)c2c1NC(=O)CC2` (stereo not shown) [Example 146], the melting point was 253 to 256 °C.

The compound `CCN1C(=O)CCc2c(CC3SC(=O)NC3=O)ccc(OC)c21` (stereo not shown) [Example 147] returned a melting point of 179 to 181 °C.

Regarding `CCNC(=O)Nc1ccc(CN2C(=O)CCc3c(CC4SC(=O)NC4=O)ccc(OC)c32)cc1` (stereo not shown) [Example 227], the melting point was 195.7 to 196.9 °C.

With `CCC(=O)Nc1ccc(CN2C(=O)CCc3c(CC4SC(=O)NC4=O)ccc(OC)c32)cc1` (stereo not shown) [Example 228], the melting point was 198.3 to 200.3 °C.

In turn, `COc1ccc(CC2SC(=O)NC2=O)c2c1N(Cc1ccc(NC(C)=O)cc1)C(=O)CC2` (stereo not shown) [Example 229] showed a melting point of 215.2 to 217.8 °C.

`COC(=O)Nc1ccc(CN2C(=O)CCc3c(CC4SC(=O)NC4=O)ccc(OC)c32)cc1` (stereo not shown) [Example 230] showed a melting point of 136.3 to 138.6 °C.

For the compound `COc1ccc(CC2SC(=O)NC2=O)c2c1N(Cc1ccc(NC(=O)c3cccnc3)cc1)C(=O)CC2` (stereo not shown) [Example 231], the melting point fell in the range of 233 to 234.2 °C.

As for `CC(=O)N1CCC(CCN2C(=O)CCc3c(CC4SC(=O)NC4=O)cccc32)CC1` (stereo not shown) [Example 614], the melting point was in the range of 209.5 to 211 °C.
